Where two headings read alike, the source gives them in different places.
System: panel of 55 breast cancer cell lines
Experiment: Cell growth inhibition assay (Cell Titer Glo, 72 h, 9 doses; GI50, TGI, LC50)
Assay type: cell-based, human
Settings: Homo sapiens, read-out: GI50 (converted)
[1] = 600MPE cell line, censored GI50 values
[2] = AU565, AU565 cell line, censored GI50 values
[3] = CAMA-1, CAMA1 cell line, censored GI50 values
[4] = HCC1143, HCC1143 cell line, censored GI50 values
[5] = HCC1187, HCC1187 cell line, censored GI50 values
[6] = HCC1419, HCC1419 cell line, censored GI50 values
[7] = HCC1500, HCC1500 cell line, censored GI50 values
[8] = HCC1806, HCC1806 cell line, censored GI50 values
[9] = HCC1954, HCC1954 cell line, censored GI50 values

## CN(Cc1cnc2nc(N)nc(N)c2n1)c1ccc(C(=O)N[C@@H](CCC(=O)O)C(=O)O)cc1 [Methotrexate]
[1]
  GI50: 166 µM
[2]
  GI50: 166 µM
AU565, cell line AU565
  GI50: 166 µM
BT-20, cell line BT20
  GI50: 331 µM
BT-474, cell line BT474
  GI50: 331 µM
BT-549, cell line BT549
  GI50: 331 µM
[3]
  GI50: 0.0794 µM
CAMA-1, cell line CAMA1
  GI50: 0.0794 µM
HCC38, cell line HCC38
  GI50: 331 µM
HCC202, cell line HCC202
  GI50: 0.0204 µM
[4]
  GI50: 0.024 µM
HCC1143, cell line HCC1143
  GI50: 0.024 µM
[5]
  GI50: 166 µM
HCC1187, cell line HCC1187
  GI50: 166 µM
HCC1395, cell line HCC1395
  GI50: 331 µM
[6]
  GI50: 166 µM
HCC1419, cell line HCC1419
  GI50: 166 µM
HCC1428, cell line HCC1428
  GI50: 331 µM
[7]
  GI50: 0.0309 µM
HCC1500, cell line HCC1500
  GI50: 0.0309 µM
[8]
  GI50: 166 µM
HCC1806, cell line HCC1806
  GI50: 166 µM
HCC1937, cell line HCC1937
  GI50: 331 µM
[9]
  GI50: 0.0155 µM
HCC1954, cell line HCC1954
  GI50: 0.0155 µM
MCF7, cell line MCF7
  GI50: 0.0575 µM
MDA-MB-157, cell line MDAMB157
  GI50: 166 µM
MDA-MB-231, cell line MDAMB231
  GI50: 331 µM
MDA-MB-361, cell line MDAMB361
  GI50: 0.158 µM
MDA-MB-415, cell line MDAMB415
  GI50: 331 µM
MDA-MB-436, cell line MDAMB436
  GI50: 0.02 µM
MDA-MB-453, cell line MDAMB453
  GI50: 331 µM
MDA-MB-468, cell line MDAMB468
  GI50: 0.0324 µM
SK-BR-3, cell line SKBR3
  GI50: 0.692 µM
SUM52PE, cell line SUM52PE
  GI50: 331 µM
SUM149PT, cell line SUM149PT
  GI50: 331 µM
SUM185PE, cell line SUM185PE
  GI50: 331 µM
SUM225CWN, cell line SUM225CWN
  GI50: 331 µM
SUM-159-PT, cell line SUM159PT
  GI50: 331 µM
ZR-75-1, cell line ZR751
  GI50: 0.0661 µM
ZR-75B, cell line ZR75B
  GI50: 331 µM
Cell line 600MPE
  GI50: 166 µM
Cell line HCC2185
  GI50: 331 µM
Cell line LY2
  GI50: 0.0339 µM
Cell line MDAMB134V
  GI50: 331 µM
Cell line SUM1315MO
  GI50: 331 µM

## CNC(=O)c1cc(Oc2ccc(NC(=O)Nc3ccc(Cl)c(C(F)(F)F)c3)cc2)ccn1 [Sorafenib]
[1]
  GI50: 45.7 µM
[2]
  GI50: 178 µM
AU565, cell line AU565
  GI50: 178 µM
BT-20, BT20 cell line, censored GI50 values
  GI50: 63.1 µM
BT-20, cell line BT20
  GI50: 63.1 µM
BT-474, BT474 cell line, censored GI50 values
  GI50: 100 µM
BT-474, cell line BT474
  GI50: 100 µM
BT-483, BT483 cell line, censored GI50 values
  GI50: 11.7 µM
BT-483, cell line BT483
  GI50: 11.7 µM
BT-549, BT549 cell line, censored GI50 values
  GI50: 120 µM
BT-549, cell line BT549
  GI50: 120 µM
[3]
  GI50: 95.5 µM
CAMA-1, cell line CAMA1
  GI50: 95.5 µM
HCC38, HCC38 cell line, censored GI50 values
  GI50: 87.1 µM
HCC38, cell line HCC38
  GI50: 87.1 µM
HCC70, HCC70 cell line, censored GI50 values
  GI50: 35.5 µM
HCC70, cell line HCC70
  GI50: 35.5 µM
HCC202, HCC202 cell line, censored GI50 values
  GI50: 72.4 µM
HCC202, cell line HCC202
  GI50: 72.4 µM
[4]
  GI50: 58.9 µM
HCC1143, cell line HCC1143
  GI50: 58.9 µM
[5]
  GI50: 32.4 µM
HCC1187, cell line HCC1187
  GI50: 32.4 µM
HCC1395, HCC1395 cell line, censored GI50 values
  GI50: 47.9 µM
HCC1395, cell line HCC1395
  GI50: 47.9 µM
[6]
  GI50: 417 µM
HCC1419, cell line HCC1419
  GI50: 417 µM
HCC1428, HCC1428 cell line, censored GI50 values
  GI50: 45.7 µM
HCC1428, cell line HCC1428
  GI50: 45.7 µM
[7]
  GI50: 178 µM
HCC1500, cell line HCC1500
  GI50: 178 µM
[8]
  GI50: 148 µM
HCC1806, cell line HCC1806
  GI50: 148 µM
HCC1937, HCC1937 cell line, censored GI50 values
  GI50: 513 µM
HCC1937, cell line HCC1937
  GI50: 513 µM
[9]
  GI50: 55 µM
HCC1954, cell line HCC1954
  GI50: 55 µM
HCC2185 cell line, censored GI50 values
  GI50: 14.8 µM
HCC3153 cell line, censored GI50 values
  GI50: 120 µM
MCF7, MCF7 cell line, censored GI50 values
  GI50: 64.6 µM
MCF7, cell line MCF7
  GI50: 64.6 µM
MDA-MB-134-VI, MDAMB134VI cell line, censored GI50 values
  GI50: 28.8 µM
MDA-MB-157, MDAMB157 cell line, censored GI50 values
  GI50: 240 µM
MDA-MB-175-VII, MDAMB175VII cell line, censored GI50 values
  GI50: 81.3 µM
MDA-MB-231, MDAMB231 cell line, censored GI50 values
  GI50: 89.1 µM
MDA-MB-361, MDAMB361 cell line, censored GI50 values
  GI50: 60.3 µM
MDA-MB-415, MDAMB415 cell line, censored GI50 values
  GI50: 95.5 µM
MDA-MB-436, MDAMB436 cell line, censored GI50 values
  GI50: 51.3 µM
MDA-MB-468, MDAMB468 cell line, censored GI50 values
  GI50: 158 µM
SK-BR-3, SKBR3 cell line, censored GI50 values
  GI50: 70.8 µM
SUM52PE, SUM52PE cell line, censored GI50 values
  GI50: 1.7 µM
SUM149PT, SUM149PT cell line, censored GI50 values
  GI50: 15.8 µM
SUM185PE, SUM185PE cell line, censored GI50 values
  GI50: 1.48 µM
SUM225CWN, SUM225CWN cell line, censored GI50 values
  GI50: 40.7 µM
SUM1315MO2, SUM1315MO2 cell line, censored GI50 values
  GI50: 186 µM
SUM-159-PT, SUM159PT cell line, censored GI50 values
  GI50: 21.9 µM
T47D, T47D cell line, censored GI50 values
  GI50: 25.7 µM
UACC-893, UACC893 cell line, censored GI50 values
  GI50: 331 µM
ZR-75-1, ZR751 cell line, censored GI50 values
  GI50: 45.7 µM
Cell line 600MPE
  GI50: 45.7 µM
Cell line HCC2185
  GI50: 14.8 µM
Cell line HCC3153
  GI50: 120 µM

Reference: patent US10770169B2, “Method of providing a treatment to a subject based on a dynamic pathway map” (THE REGENTS OF THE UNIVERSITY OF CALIFORNIA, priority 2010, dated 2020)
